In the assay the test system is male mice (Charles Rivers CD1). Description: Learning and memorizing: anti-amnesiac effect on electric shock-induced retrograde amnesia (two-compartment luminous/dark box avoidance). Type of assay: in vivo. As to conditions: for Percentage increase in latency time in comparison with the controls: 3 hours after treatment, * = statistically different in comparison with controls; for anti-amnesic activity: at doses between 50 and 200 mg/kg, oral route. The source says:
There were used male mice (Charles Rivers CD1) weighing 25-30 g. The animals were placed in the luminous part of a box with two compartments communicating by an opening [F. Barzaghi and G. Galliani, Brit. J. Pharmacol. 86, p.
At the instant when the mouse passes from the luminous compartment to the dark compartment, the opening closes and it is immediately punished by an electric discharge to the paws. The animal submitted to this procedure learns to memorize the punishment. In fact, if it is put back in the luminous compartment, it will thus avoid crossing the opening and reentering the dark compartment.
In order to induce a retrograde amnesia, the animals are submitted immediately after learning to an electric shock. After the electric shock, the products are administered by oral route at different doses.
There were used from 10 to 50 animals per dose.
The anti-amnesiac effect of the products is evaluated 3 hours after the treatment, using the same procedure as that utilized for the acquisition.
The time taken by the animal to return to the dark chamber (time limit 180 seconds) is used as evaluation parameter.
The active products are those which cause a significant increase in the latency time with a bell-shaped dose-response curve.
The results are expressed as percentages of the increase of the latency time in comparison with the corresponding controls.

Results on 4 molecules are retold here after patent US4885307A, “Derivatives of 1-arylsulphonyl-1,5-dihydro-2H-pyrrol-2-one, and compositions containing them” (Roussel Uclaf, priority 1987, dated 1989).

Regarding `NC(=O)CN1CCCC1=O` [PIRACETAM, reference compound], the “Percentage increase in latency time in comparison with the controls” value (“Percentage increase in latency time” for short) was determined as 10% (50 mg/kg per os), 48% (100 mg/kg per os) and 20% (200 mg/kg per os).
Consider `CCCCOC1C=CC(=O)N1S(=O)(=O)c1cccc(C(F)(F)F)c1` (stereo not drawn) [Example 12, 1-(3-trifluoromethyl-benzenesulphonyl)-5-n-butyloxy-1,5-dihydro-2H-pyrrol-2-one], for which the anti-amnesic activity entry is given as “have shown an anti-amnesic activity”. In addition, the “Percentage increase in latency time” value (50 mg/kg per os) came out at 20%. The “Percentage increase in latency time” value (100 mg/kg per os) came to 75%. Further, where the note is “200 mg/kg per os”, the “Percentage increase in latency time” value is on record as 92%.
For `CCCCOC1C=CC(=O)N1S(=O)(=O)c1ccccc1` (stereo not drawn) [Example 4, 1-benzenesulphonyl-5-n-butoxy-1,5-dihydro-2H-pyrrol-2-one] the same measures were “have shown an anti-amnesic activity”, 54%, 96% and 79%.
For `CCCCCOC1C=CC(=O)N1S(=O)(=O)c1ccccc1` (stereo not drawn) [Example 6, 1-benzenesulphonyl-1,5-dihydro-5-n-pentyloxy-2H-pyrrol-2-one], in that order: “have shown an anti-amnesic activity”, 73%, 92% and 76%.
